Test results taken from patent publication US5574062A, “Coumarin derivative and use thereof” (Morinaga Milk Industry Co., Ltd., priority 1993, dated 1996).
Read-outs that look alike come from different tables or passages of the source. Each block holds one molecule with its values, some of them ahead of it.

Experiments:
5-lipoxygenase [1] = settings: 10 uM, cited from earlier work
12-lipoxygenase [2] = settings: same concentration (10 uM), platelets; cited from earlier work
12-lipoxygenase [3] = target: T1, 12-lipoxygenase (Rattus norvegicus, UniProt F1LQ70); experiment: 12-lipoxygenase inhibition assay (rat platelet supernatant, arachidonic acid, HPLC of 12-HETE); assay type: biochemical, Sprague Dawley male rat (platelets)
T1 construct: The platelets were then sonicated at 4° C. and centrifuged at 100,000×g for 30 minutes to obtain a supernatant as a 12-lipoxygenase enzyme solution; from tissue; host or cells: Sprague Dawley rat platelets (from aortic blood), sonicated, 100,000 x g supernatant
T1 sequence (F1LQ70 1-663): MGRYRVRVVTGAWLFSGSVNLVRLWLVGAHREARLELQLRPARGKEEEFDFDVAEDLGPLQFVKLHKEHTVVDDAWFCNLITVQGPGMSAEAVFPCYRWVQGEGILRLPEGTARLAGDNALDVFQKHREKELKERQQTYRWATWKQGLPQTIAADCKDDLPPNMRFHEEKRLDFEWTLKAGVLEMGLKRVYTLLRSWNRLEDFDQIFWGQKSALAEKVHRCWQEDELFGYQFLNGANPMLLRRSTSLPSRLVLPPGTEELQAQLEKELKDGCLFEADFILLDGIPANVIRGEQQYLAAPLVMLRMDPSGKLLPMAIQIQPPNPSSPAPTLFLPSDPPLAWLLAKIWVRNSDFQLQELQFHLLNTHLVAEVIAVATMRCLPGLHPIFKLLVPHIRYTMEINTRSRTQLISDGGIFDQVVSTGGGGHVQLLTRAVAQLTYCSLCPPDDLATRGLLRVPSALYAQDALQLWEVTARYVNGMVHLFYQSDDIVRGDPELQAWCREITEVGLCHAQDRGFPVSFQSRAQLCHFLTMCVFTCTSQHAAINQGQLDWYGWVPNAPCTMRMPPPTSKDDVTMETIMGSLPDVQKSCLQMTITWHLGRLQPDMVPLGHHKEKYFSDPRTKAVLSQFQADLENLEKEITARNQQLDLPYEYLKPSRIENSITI
Protocol: (§1) A Sprague Dawley male rat was anesthetized with ether and bled from abdominal aorta using a syringe filled with about one-tenth volume of 3.8% sodium citrate. Blood was centrifuged at 180×g for 15 minutes at room temperature to pellet sanguineous platelet blood plasma. The resultant supernatant was again centrifuged at 1800×g for 10 minutes at 4° C. The pelleted platelets were rinsed twice with a washing buffer (50 mM Tris-hydrochloric acid buffer containing 154 mM sodium chloride and 2 mM EDTA, pH: 7.4). The platelets were then suspended in one-twentieth volume of a resuspension buffer (50 mM Tris-hydrochloric acid buffer containing 154 mM sodium chloride and 5.5 mM glucose, pH: 7.4). The platelets were then sonicated at 4° C. and centrifuged at 100,000×g for 30 minutes to obtain a supernatant as a 12-lipoxygenase enzyme solution.
(§2) The enzyme solution described above was diluted with the resuspension buffer above mentioned to prepare an assay solution so as to include about 2 mU/ml of 12-lipoxygenase. To an aliquot (300 μl) of the assay solution was added 1 μl of a 3 mM indomethacin-ethanol solution, 1 μl of an aqueous 300 mM reduced-glutathione solution, and 3 μl of varied concentrated test compounds solution in ethanol. The resultant mixture was incubated at 37° C. for 5 minutes. Subsequently, 3 μl of a 2.5 mM arachidonic acid solution in ethanol was added to incubate with for another 5 minutes at 37° C., then the reaction was ceased by the addition of 600 μl of methanol. After being centrifuged at 10,000×g for 5 minutes, 12-hydroxyeicosatetraenoic acid recovered in the supernatant was separated with a reverse phase high-performance liquid chromatography equipped with a C-18 column and measured the absorption of diene at 234 nm to quantify the activity of 12-lipoxygenase.
(§3) As test compounds were used the compounds of the present invention prepared in the same methods as in Example 4, Example 5 and Example 8 and the compounds prepared in the same methods as in Comparative Examples 1-5, and as a control was used esculetin (purchased from Tokyo Kasei), a known compound represented by the following formula: [drawing 33] and the test was conducted at varied concentrations.
(§4) The enzyme solution was prepared according to the same manner as in Test Example 1.
(§5) The inhibition assay was performed according to the same method as described in Test Example 1 except that the same samples used in measurement of the 5-lipoxygensase activity were used to estimate IC50 values. […]
(§6) They were measured in the same method as in Test Example 1.

12-lipoxygenase [4] = experiment: as above; assay type: biochemical, Sprague Dawley male rat (platelets); settings: comparative tests by the inventors
Protocol: as §1, §2, §3, §4, §5, §6

[5] = tested on: 12-lipoxygenase of mastocytoma cells; settings: literature; cited from earlier work
5-lipoxygenase [6] = target: T2, 5-lipoxygenase (Rattus norvegicus, UniProt P12527); experiment: 5-lipoxygenase inhibition assay (RBL-1 supernatant, arachidonic acid, HPLC of 5-HETE); assay type: biochemical, rat (basophilic leukemia cells RBL-1, ATCC CRL1378)
T2 construct: host or cells: RBL-1 (rat basophilic leukemia cells)
T2 sequence (P12527 1-673): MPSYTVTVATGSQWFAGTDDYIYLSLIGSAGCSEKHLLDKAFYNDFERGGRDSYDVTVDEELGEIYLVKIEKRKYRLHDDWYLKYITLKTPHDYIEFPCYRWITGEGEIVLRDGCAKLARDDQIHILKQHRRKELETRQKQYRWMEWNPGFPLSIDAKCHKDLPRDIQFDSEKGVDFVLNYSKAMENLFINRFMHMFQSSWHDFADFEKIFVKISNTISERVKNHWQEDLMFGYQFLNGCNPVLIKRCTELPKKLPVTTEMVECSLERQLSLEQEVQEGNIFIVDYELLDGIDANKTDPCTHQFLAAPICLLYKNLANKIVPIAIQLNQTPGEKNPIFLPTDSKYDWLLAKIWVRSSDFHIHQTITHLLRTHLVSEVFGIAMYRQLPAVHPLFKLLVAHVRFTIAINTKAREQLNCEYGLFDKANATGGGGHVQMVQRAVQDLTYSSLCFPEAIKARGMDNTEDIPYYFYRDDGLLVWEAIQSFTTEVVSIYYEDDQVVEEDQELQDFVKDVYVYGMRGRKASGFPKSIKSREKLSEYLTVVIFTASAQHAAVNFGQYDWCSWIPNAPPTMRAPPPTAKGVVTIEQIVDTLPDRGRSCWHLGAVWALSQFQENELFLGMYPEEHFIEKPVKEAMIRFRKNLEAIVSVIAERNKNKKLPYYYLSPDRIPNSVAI
Protocol: Rat basophilic leukemia cells (RBL-1, ATCC CRL1378) were cultured in Dulbecco modified Eagle's medium containing 10% new-born bovine serum.
Cultured cells were collected and washed twice with a 50 mM Tris-buffered saline (containing 154 mM sodium chloride, pH: 7.4, hereinafter described as TBS). The cell suspension (4×10^7 cells/ml) was then sonicated and centrifuged at 10,000×g for 10 minutes.
The resultant supernatant was used to prepare an assay solution.
To an aliquot (15 μl) of the enzyme solution (40 mU/ml equivalent) was added 185 μl of TBS, 50 μl of a 2 mM adenosine triphosphate in TBS, 50 μl of a 12 mM calcium chloride in TBS, 1 μl of a 3 mM indomethacin in ethanol solution, 1 μl of an aqueous 300 mM reduced glutathione solution, and 3 μl of varied concentrated test compounds solution in ethanol. The resultant mixture was incubated at 37° C. for 5 minutes. Subsequently, 3 μl of a 2.5 mM arachidonic acid solution in ethanol was added to incubate the mixture for 2 minutes at 37° C. The reaction was ceased by the addition of 600 μl of methanol. After being centrifuged at 10,000×g for 5 minutes, 5-hydroxyeicosatetraenoic acid recovered in the supernatant was separated with a reverse phase high-performance liquid chromatography equipped with a C-18 column and measured the absorption of diene at 234 nm to quantify the activity of the enzyme.
Using the compounds of the present invention prepared in the same manner as in Examples 1-30, and Examples 33-36 as test samples and known baicalein (purchased from Wako Junyaku Kogyo) represented by the following formula 30 as a control: [drawing 34] the tests were performed for dose dependent inhibition to estimate IC50 values
It was prepared in the same method as in Test Example 2.
They were measured in the same method as in Test Example 2.

[7] = Formation of deacylated compounds by esterases in rat platelet enzyme solution (HPLC); assay type: in vitro ADME, rat (platelets); settings: rat, platelet enzyme solution, 37° C., enzyme solution, read-out: conversion ratio to Formula 34b; for metabolised at 0.5 h, 10 µM: reaction time 30 minute; for metabolised at 1 h, 10 µM: reaction time 60 minute
Protocol: (§7) The test was performed to examine whether or not deacylated compounds would be formed due to esterases present in the enzyme solution when the compounds in the third embodiment according to the present invention were treated with the same enzyme solution as in Test Example 3.
(§8) The enzyme solution was prepared according to the same procedure as described in Test Example 1.
(§9) One ml of the above mentioned enzyme solution was diluted with 11 ml of a resuspension buffer. To an aliquot (300 μl) of this enzyme solution was added 3 μl of a 1.0×10^-3 M test compound solution in dimethyl sulfoxide. The mixture was incubated at 37° C. for an indicated time, then the reaction was ceased by the addition of 1 ml of acetonitrile. Twenty μl of the above mixture was subjected to reverse phase high-performance liquid chromatography equipped with a C-18 column to quantify the amount of deacylated products. As a control, a test using 300 μl of the resuspension buffer solution mentioned above instead of the enzyme solution was also performed.
(§10) Conditions of reverse phase high-performance liquid chromatography:
(§11) Column: Superspher RP-18(e) (purchased from Merck), 4.0 mm in diameter, 125 mm in length
(§12) Flow velocity: 1.0 ml/minute
(§13) Eluent: Acetonitrile containing 50 mM NaClO4 and 50 mM orthophosphate-water (55:45)
(§14) Column temperature: 30° C.
(§15) Calibration: Absorbance of 280 nm
(§16) The results of the test upon the compounds of Example 40 (Formula 43b) and Example 57 (Formula 74b) of the compounds according to the present invention will be shown. Since both the compounds of Example 40 (Formula 43b) and Example 57 (Formula 74b) are thought to be converted into the compound of Referential Example 8 (Formula 34b) through deacylation, the retention time of the compound of Referential Example 8 was checked strictly under the employed conditions with reverse phase high-performanceliquid chromatography mentioned above (retention time: 2.49 minutes) and a calibration curve of the compound was made using authentic sample of Referential Example 8.

[8] = tested on: esterases present in the enzyme solution; experiment: as above; assay type: in vitro ADME, rat (platelets); settings: resuspension buffer instead of the enzyme solution
Protocol: as §7, §8, §9, §10, §11, §12, §13, §14, §15, §16

12-lipoxygenase [9] = settings: known compound used as lead; cited from earlier work
[10] = 12-Lipoxygenase inhibiting activity IC50 value, Test Example 5, Table 22
[11] = Test Example 2, Table 2, read-out: IC50 value of 12-lipoxygenase
[12] = Test Example 2, Table 2, read-out: IC50 value of 5-lipoxygenase

metabolised at 0.5 h, 10 µM [7]: 42.4%
metabolised at 1 h, 10 µM [7]: 60.4%
Structure (SMILES): CCC(=O)Oc1cc2cc(-c3cccc(Cl)c3)c(=O)oc2cc1OC(=O)CC [Example 57]
formation of deacylated compound in buffer control [8]: no deacylated compound (Formula 34b) was formed

IC50 (12-lipoxygenase [3]; Test Example 1, Table 1 and text, read-out: 12-lipoxygenase IC50 value): 260 nM
IC50 (5-lipoxygenase [6]; text of Test Example 1, not shown in Table 1, read-out: 5-lipoxygenase inhibitory activity IC50 value): 640 nM
Structure (SMILES): O=c1cc(-c2ccccc2)c2ccc(O)c(O)c2o1 [Comp. Example 3, reference compound]
selectivity between 12-lipoxygenase and 5-lipoxygenase (in words) (12-lipoxygenase [4]): no selectivity was found

metabolised at 0.5 h, 10 µM [7]: 70.7%
metabolised at 1 h, 10 µM [7]: 72.8%
Structure (SMILES): CC(=O)Oc1cc2cc(-c3cccc(Cl)c3)c(=O)oc2cc1OC(C)=O [Example 40]
formation of deacylated compound in buffer control [8]: no deacylated compound (Formula 34b) was formed

IC50 (12-lipoxygenase [3]; [11]): 8 nM
IC50 (5-lipoxygenase [6]; [12]): 400 nM
Structure (SMILES): O=c1oc2cc(O)c(O)cc2cc1-c1ccc(F)cc1 [Example 7]

IC50 (12-lipoxygenase [3]; [11]): 12 nM
IC50 (5-lipoxygenase [6]; [12]): 360 nM
Structure (SMILES): O=c1oc2c(O)c(O)ccc2cc1-c1cc(Br)cs1 [Example 33, 3-(4-bromothiophen-2-yl)-7,8-dihydroxycoumarin]

The next lines start with the molecule.

Structure (SMILES): Oc1ccc(C2COc3cc(O)c(O)cc3C2)cc1 (centres unmarked) [compound of 12), 4',6,7-trihydroxyisoflavan]
inhibition of formation of 5-lipoxygenase metabolic products (5-lipoxygenase [1]; human peripheral leukocytes): completely
selectivity between 5-lipoxygenase and 12-lipoxygenase (in words) (5-lipoxygenase [1]; literature, leukocytes vs. platelets): selective toward 5-lipoxygenase
inhibition of formation of 12-lipoxygenase metabolic products (12-lipoxygenase [2]): 25%

Structure (SMILES): O=c1ccc2cc(O)c(O)cc2o1 [Esculetin, 6,7-dihydroxycoumarin, reference compound]
12-lipoxygenase inhibitory activity (in words) (12-lipoxygenase [3]): considerably weaker inhibitory effect on 12-lipoxygenase than the compounds of the present invention
IC50 (12-lipoxygenase [3]; [10]): 4400 nM
IC50 (12-lipoxygenase [3]; 12-lipoxygenase IC50 value, Test Example 1, Table 1 and text): 4400 nM
selectivity between 12-lipoxygenase and 5-lipoxygenase (in words) (12-lipoxygenase [4]): no selectivity was found
IC50 [5]: 2500 nM
IC50 (5-lipoxygenase [6]): 4300 nM

Structure (SMILES): O=c1cc(-c2ccccc2)oc2cc(O)c(O)c(O)c12 [Baicalein, 5,6,7-trihydroxyflavone, reference compound]
IC50 (12-lipoxygenase [3]; [10]): 42 nM
IC50 (12-lipoxygenase [3]; 12-lipoxygenase inhibiting activities of deacylated compounds (IC50 values), Test Example 3, Table 11, value belongs to the deacylated compound): 42 nM
IC50 (12-lipoxygenase [3]; IC50 value of 12-lipoxygenase, Test Example 2, Table 2): 42 nM
IC50 (12-lipoxygenase [3]; read-out: 12-Lipoxygenase inhibiting activity IC50 value, Test Example 5, Table 22): 42 nM
12-lipoxygenase inhibitory activity (in words) (12-lipoxygenase [9]): relatively strong 12-lipoxygenase inhibitory activity
selectivity (in words) (12-lipoxygenase [9]): relatively high selectivity
IC50 (5-lipoxygenase [6]): 2400 nM
IC50 (5-lipoxygenase [6]; read-out: IC50 value of 5-lipoxygenase, Test Example 2, Table 2): 2400 nM

Structure (SMILES): Cc1ccc(-c2cc3ccc(O)c(O)c3oc2=O)o1 [Example 35]
IC50 (12-lipoxygenase [3]; [11]): 15 nM
IC50 (5-lipoxygenase [6]; [12]): 340 nM

Structure (SMILES): O=c1oc2cc(O)c(O)cc2cc1-c1cccc(Cl)c1 [Example 9, 3-(3-chlorophenyl)-6,7-dihydroxycoumarin]
IC50 (12-lipoxygenase [3]; [11]): 4.3 nM
IC50 (12-lipoxygenase [3]; Test Example 3, Table 11, value belongs to the deacylated compound, read-out: 12-lipoxygenase inhibiting activities of deacylated compounds (IC50 values)): 4.3 nM
IC50 (5-lipoxygenase [6]; [12]): 160 nM
